{
  "source": "patent EP1298214A2",
  "about": "“Plant thioesterases” (Calgene LLC, priority 1990, dated 1991)",
  "key": {"[1]": {"tested_on": "Cuphea C10 acyl-ACP thioesterase", "assay": "Cuphea thioesterase substrate specificity at the hydroxyapatite stage (Example 9A)", "assay_type": "biochemical, Cuphea hookeriana", "conditions": "hydroxyapatite stage in purification", "procedure": "Following the same general procedures as outlined in Example 1, to assay for C10 thioesterase activity, the following mixture is incubated at 30° for 10-60 min: 50µl sample to be tested in the same or similar \"extraction buffer\" described in Example 9A, and approximately 250pmol of [^14C]-radiolabeled acyl-ACP substrate, (usually decanoyl-ACP is labeled in the carboxylate group to 50-60µCi/µmol) in a total volume of […], for a final decanoyl-ACP concentration of 0.5-5.0µM, typically 5.0µM. The reaction is stopped by adding 0.5ml 10% (v/v) cold (4°) acetic acid and placing the reaction mixture on ice for a few minutes. The fatty acid product of the hydrolytic enzyme action is extracted away from the unhydrolyzed substrate by adding 2ml diethyl ether and mixing vigorously. The ether is transferred to 5ml scintillation fluid for scintillation counting. Additional ether extracts may be performed to recover remaining traces of product for more accurate quantitation of the activity if desired.\nThe resulting preparation is then subjected to hydroxyapatite column chromatography. The following method applies to ammonium sulfate fraction from 100g fresh weight of starting seed tissue. The dialyzed ammonium sulfate fraction (35-40ml) is applied to a column of hydroxyapatite (2.5cm x 14cm bed height of Bio-Gel HTP from Bio-Rad Inc.; Richmond, CA, catalog no. 130-0420), equilibrated in 50mM KH2PO4-KOH pH 6.9, 10% (v/v) glycerol, 4mM 2-mercaptoethanol. The column is then washed (flow rate 1.5ml/min throughout) with 280ml of the same buffer. Elution is accomplished with a 580ml linear gradient from these conditions to 350mM KH2PO4-KOH pH 6.9, 10% (v/v) glycerol, 4mM 2-mercaptoethanol, collecting fractions of 12ml volume. The eluted fractions are assayed for hydrolase activity using decanoyl-ACP as substrate. […]\nThe substrate specificity of Cuphea C10 acyl-ACP thioesterase towards medium-chain acyl-ACP's has been determined at the hydroxyapatite stage in purification, as described in Example 9A: Table 6"}, "[2]": {"molecular_target": "T1, pCGN3823 induced E. coli lysate (mature bay thioesterase) (Umbellularia californica, UniProt Q41635)", "T1 construct": "the entire mature bay thioesterase protein is expressed as a lac fusion in E. coli cells; made in house", "T1 sequence (Q41635 84-382)": "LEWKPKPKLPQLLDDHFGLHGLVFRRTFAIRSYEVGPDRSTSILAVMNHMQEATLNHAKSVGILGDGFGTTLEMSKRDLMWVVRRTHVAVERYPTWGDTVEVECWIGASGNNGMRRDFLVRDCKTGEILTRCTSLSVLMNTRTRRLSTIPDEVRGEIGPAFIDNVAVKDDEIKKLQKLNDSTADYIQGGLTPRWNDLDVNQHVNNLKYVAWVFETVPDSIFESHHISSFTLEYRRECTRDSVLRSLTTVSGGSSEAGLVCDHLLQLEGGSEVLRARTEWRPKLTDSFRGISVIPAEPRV", "assay": "Acyl-ACP hydrolysis by lysate of E. coli expressing mature bay thioesterase as lac fusion", "assay_type": "biochemical", "conditions": "Dilution 1/4000, one hour induction with 0.1mM IPTG", "procedure": "To assay for C12 thioesterase activity the following mixture is incubated at 30° for 30 min: \"buffer\" comprising 7mM KH2PO4-KOH pH 8, 20% v/v glycerol, 1mM dithiothreitol (DTT), 0.1% v/v Triton X100; sample to be tested for activity in the same or similar buffer as the \"extraction buffer\" described in Example 2; and 5µl of ^14C-radiolabeled lauroyl-ACP substrate for a total volume of 100µl and final lauroyl-ACP concentration of 0.5µM. Lauroyl-ACP substrate is prepared according to the method of Rock et al (Methods in Enzymology (1981) 72:397-403), using ACP prepared from Escherichia coli by the method of Rock and Cronan (Methods in Enzymology (1981) 71:341-351). The laurate is radiolabeled in the carboxylate group at a specific radioactivity of 50-60µCi/µmol.\nThe reaction is stopped by adding 0.5ml cold (0°) 10% v/v acetic acid. The fatty acid product of the hydrolytic enzyme action is extracted away from the unhydrolyzed substrate by adding 1ml diethyl ether and mixing vigorously. After settling for a few minutes the upper ether layer is transferred to 5ml scintillation fluid for determination of radioactivity by liquid scintillation spectrometry. Additional ether extractions may be performed to recover remaining traces of the reaction product for more accurate quantitation of the enzyme activity if desired. The amount of ether-extracted radioactivity is a direct measure of C12-preferring acyl-ACP thioesterase activity, provided the amount of enzyme is not sufficient to hydrolyze more than about 25% of the substrate. With greater activity than this the relationship between radioactivity in the ether layer and the quantity of enzyme becomes markedly nonlinear. The enzyme preparation must then be diluted appropriately to bring the activity into the linear range of the assay.\nIn addition, the entire mature bay thioesterase protein is expressed as a lac fusion in E. coli cells. […] Digestion at this XbaI site cleaves the coding region immediately 5' of the codon representing the leucine at amino acid position 72. This leucine has been identified as a candidate for the amino terminal residue as described in Example 14A.\nAn approximately 1200 bp fragment of pCGN3822 cDNA is generated by digestion with XbaI, which cuts at the postulated mature protein start site, as described above, and in the vector sequences flanking the 3' end of the cDNA. The XbaI fragment is cloned on XbaI digest of the minus version of a Bluescribe M13(+/-) (also called pBS+/-) cloning vector (Stratagene; San Diego, CA.). The thioesterase gene clone is inserted such that the mature protein is in reading frame with a portion of the lacZ gene of the Bluescribe vector and under control of the lac promoter. […]"}},
  "data": [
    {"substance": "14:0-ACP", "values": [
      {"measurement": "Hydrolysis Activity (mean)", "setting": "[1]", "result": 4055, "unit": "pmol/min"},
      {"measurement": "Hydrolysis Activity (mean cpm in ether extract)", "setting": "[2]", "result": 116, "unit": "cpm"}
    ]},
    {"substance": "16:0-ACP", "values": [
      {"measurement": "Hydrolysis Activity (mean cpm in ether extract)", "setting": "[2]", "result": 20, "unit": "cpm"}
    ]},
    {"substance": "decanoyl-ACP [10:0-ACP]", "values": [
      {"measurement": "Hydrolysis Activity (mean)", "setting": "[1]", "result": 6950, "unit": "pmol/min"},
      {"measurement": "Hydrolysis Activity (mean cpm in ether extract)", "setting": "[2]", "result": 0, "unit": "cpm"}
    ]},
    {"substance": "lauroyl-ACP [12:0-ACP]", "values": [
      {"measurement": "Hydrolysis Activity (mean)", "setting": "[1]", "result": 1032, "unit": "pmol/min"},
      {"measurement": "Hydrolysis Activity (mean cpm in ether extract)", "setting": "[2]", "result": 1840, "unit": "cpm"}
    ]}
  ]
}
